Here are results for 5 compounds from patent publication US7550480B2, “Compounds” (SmithKline Beecham Corporation, priority 2003, dated 2009).

For orientation: IC50 means the concentration at which inhibition is half-maximal. The term Ki denotes the dissociation constant of the complex between target and ligand, obtained from inhibition or displacement.

For assay [1], the target named is T1, CSBP/p38 (Homo sapiens, UniProt Q16539). In words: CSBP/p38 Kinase Assay (32P transfer to EGFR-derived T669 peptide). It is filed as biochemical. The arrangement: made in house; host or cells: yeast. The note with it: for IC50: 0.17 mM ATP, 0.67 mM T669 peptide, 2-4 nM yeast-expressed activated p38, 25 min at 37° C.; for active as inhibitors of the CSBP kinase: statement in words, assay not given. How it is done: This assay measures the CSBP/p38-catalyzed transfer of ^32P from [a-^32P]ATP to threonine residue in an epidermal growth factor receptor (EGFR)-derived peptide (T669) with the following sequence: […] (SEQ ID 1) (residues 661-681). (See Gallagher et al., “Regulation of Stress Induced Cytokine Production by Pyridinyl Imidazoles: Inhibition of CSBP Kinase”, BioOrganic & Medicinal Chemistry, 1997, 5, 49-64).
Reactions are carried in round bottom 96 well plate (from Corning) in a […] volume. […] Filters are washed with 75 mM phosphoric acids, and incorporated 32P was quantified using beta scintillation counter. Under these conditions, the specific activity of p38 will be determined and is generally 400-450 pmol/pmol enzyme, and the activity being linear for up to 2 hours of incubation. The kinase activity values are obtained after subtracting values generated in the absence of substrate which were 10-15% of total values.

In assay [2] the target is T1, CSBP/p38. In words: Fluorescence Anisotropy Kinase Binding Assay. The note with it: pKi is the negative log of the Ki; p38 enzyme 12 nM, fluorescent ligand 5 nM. On the procedure: The concentration of kinase enzyme should preferably be ≧1×Kf. The concentration of fluorescent ligand required will depend on the instrumentation used, and the fluorescent and physicochemical properties. The concentration used must be lower than the concentration of kinase enzyme, and preferably less than half the kinase enzyme concentration.
All components dissolved in Buffer of final composition 62.5 mM HEPES, pH 7.5, 1.25 mM CHAPS, 1.25 mM […], 12.5 mM MgCl2 3.3% DMSO.
p38 Enzyme concentration: 12 nM
Fluorescent ligand concentration: 5 nM
Test compound concentration: 0.1 nM-100 uM
Components incubated in 30 ul final volume in NUNC 384 well black microtitre plate until equilibrium reached (5-30 mins)
Fluorescence anisotropy read in LJL Acquest.
Definitions: Ki=dissociation constant for inhibitor binding
• Kf=dissociation constant for fluorescent ligand binding The fluorescent ligand is the following compound:
[drawing 13] which is derived from 5-[2-(4-aminomethylphenyl)-5-pyridin-4-yl-1H-imidazol-4-yl]-2-chlorophenol and rhodamine green.

SMILES strings stand for the structures. Values joined by “and” are separate entries in the source; they are usually repeats but may differ in a detail not shown here. Equal values may be shown once.

T1 sequence (Q16539 whole entry, the tested form may be a part): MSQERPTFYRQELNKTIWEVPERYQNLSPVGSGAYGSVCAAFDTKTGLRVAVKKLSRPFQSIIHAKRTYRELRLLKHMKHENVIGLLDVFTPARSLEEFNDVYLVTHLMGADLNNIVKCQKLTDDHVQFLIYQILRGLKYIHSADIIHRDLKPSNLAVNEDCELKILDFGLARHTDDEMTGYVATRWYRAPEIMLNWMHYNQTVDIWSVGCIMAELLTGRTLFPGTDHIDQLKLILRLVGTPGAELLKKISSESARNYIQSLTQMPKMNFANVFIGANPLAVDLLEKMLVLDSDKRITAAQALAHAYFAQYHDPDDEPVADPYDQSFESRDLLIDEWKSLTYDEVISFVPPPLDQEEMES

Consider `O=c1ccc2c(-c3ccccc3)nccc2n1-c1ccccc1` [Example 10, 1,5-Diphenyl-1H-[1,6]naphthyridin-2-one], for which it took 200 nM to reach half-maximal inhibition at CSBP/p38 [1] (IC50).
Turning to `Cn1c(=O)ccc2c(-c3ccccc3)nccc21` [Example 11, 1-Methyl-5-phenyl-1H-[1,6]naphthyridin-2-one], on CSBP/p38 [1], half-maximal inhibition (IC50) was put at 5000 nM and the “active as inhibitors of the CSBP kinase” value is reported as “active”.
Turning to `COc1cc2c(ccc(=O)n2-c2ccccc2Cl)c(-c2ccccc2Cl)c1Br` (single isomer, unassigned) [Example 17, 6-bromo-1,5-bis(2-chlorophenyl)-7-(methyloxy)-2(1H)-quinolinone], on CSBP/p38 [2], the Ki is 20 nM and 12.6 nM.
For `O=c1ccc2c(-c3ccccc3)nccc2n1Cc1ccccc1` [Example 9, 1-Benzyl-5-phenyl-1H-[1,6]naphthyridin-2-one], 60 nM corresponded to half-maximal inhibition on CSBP/p38 [1] (IC50).
Turning to `O=c1ccc2c(-c3ccccc3)nccc2[nH]1` [Example 12, 5-Phenyl-1H-[1,6]naphthyridin-2-one], on CSBP/p38 [1], the midpoint of inhibition, the IC50, lay at 13400 nM and the “active as inhibitors of the CSBP kinase” value is on record as “active”.
